Patent publication US20220313733A1, “METHOD FOR PRODUCING RENAL INTERSTITIAL CELL” (Kyoto University, priority 2019, published 2022)

Columns and labels:
Format in all cases: cell-based, human
hNCCs = test: Hypoxic response of posteriorly shifted NCCs (hNCCs): EPO secreted into the medium; conditions: hNCCs on Day 18, 100 μM, 1 day after addition
Procedure: EPO-producing cells are known to perform the production and secretion of EPO in response to HIF signals in a hypoxic environment. The hypoxic response of the hNCCs on Day 18 prepared in Example 1-3 was confirmed using two types of compounds that activated HIF signals (FG-2216: Selleck Chemicals #18382 and FG-4592: Selleck Chemicals #S1007, 100 μM each). Results of quantifying the amount of EPO secreted into the medium on 1 day after addition of FG-2216 or FG-4592 are shown in FIG. 3. The secretion of EPO into the medium was increased in response to hypoxic stimulation.

RSCs [1] = test: Screening system for a compound that improves a sustained fibrotic state (area of tdTomato-positive cells); conditions: 3, 10 or 30 μM added on D15, cultured to D24, after 10 ng/ml TGFβ1 D4 to D13
Procedure: In FIG. 15, RSCs on day 4 of culture (D4) were treated with TGFβ1 (10 ng/ml) for 9 days (D13) and then further cultured in a TGFβ1-free medium (D15) for 2 days. SB431542 (3, 10 or 30 μM) was added to the medium of the cells on D15, and the cells were further cultured for 9 days (D24). […] “Cont” depicts a negative control (without SB addition).
RSPs were inoculated at 3000 cells/well to a 384-well plate, and the induction of RSCs was started in STEMdiff APEL2 medium (STEMCELL Technologies Inc., ST-05275). On day 4 of culture (D4), fibrosis was induced by the addition of 10 ng/ml TGFβ1. During the culture period, the culture solution containing TGFβ1 was replaced with a fresh one every 3 days. On day 13 of culture (D13), TGFβ1 was removed from the medium, and culture was further continued for 2 days (D15). The TGF receptor inhibitor SB431542 (SB) was added as a test substance to the medium of the cells on D15, and the cells were further cultured for 9 days (D24). Then, the area of tdTomato-positive cells was determined.

RSCs [2] = test: Evaluation of TGFβ1 response of RSCs (fibrosis, area of tdTomato-positive cells, αSMA)
Procedure: In vivo renal stromal cells are known to cause differentiation into αSMA-positive myofibroblasts and hypertrophy (so-called fibrosis) in response to TGFβ1 stimulation. RSCs were obtained by the methods described in Examples 1, 2 and 3-1 from the EPO-emGFP/GAPDH-tdTomato (GAPDH-tdT) dual knock-in human iPS cell line obtained in Example 4-2 mentioned later. In the method described in Example 1, the RA concentration was set to 3 μM. RSCs on day 4 of culture (D4) were treated with TGFβ1 (0.01 to 10 ng/ml) for 9 days (D13), and the degree of fibrosis was evaluated by determining the ratio of tdTomato-positive cells using image analysis software Image J (NIH). Specifically, a fluorescently taken image was converted to 8 bits for binarization, and the whole area was divided into “area of cells” and “other areas (areas containing no cell)”. The proportion was calculated according to the expression “Area of cells”/“Whole area”.

RSPs = test: Influence of bFGF, FGF9 and PDGF-BB on differentiation of RSPs into RSCs (number of cells, EPO ELISA)
Procedure: The RSPs obtained in Example 2 were inoculated at 2×10^3 cells/well to a 6-well plate coated with fibronectin, and cultured for 15 days in STEMdiff APEL2 medium (STEMCELL Technologies Inc., ST-05275) to obtain RSCs (Days 55 to 70).
The number of cells and the amount of EPO secreted into the medium which were obtained by adding 40 ng/ml bFGF, 200 ng/ml FGF9 (FUJIFILM Wako Pure Chemical Corp., #AF-100-23), and 10 ng/ml PDGF-BB (PeproTech, Inc., #100-14B) each alone or in combination to a medium were measured under the induction conditions of Example 3-1. EPO in the medium was measured by ELISA.

RSCs [3] = test: Hypoxia-responsive ability of RSCs to produce EPO (mRNA, immunostaining); conditions: 100 μM
Procedure: The RSPs obtained in Example 2 were inoculated at 2×10^3 cells/well to a 6-well plate coated with fibronectin, and cultured for 15 days in STEMdiff APEL2 medium (STEMCELL Technologies Inc., ST-05275) to obtain RSCs (Days 55 to 70). The hypoxia-responsive ability to produce EPO was confirmed as to the obtained RSCs. EPO-producing cells are known to perform the production and secretion of EPO in response to HIF signals in a hypoxic environment. The RSCs were treated with a compound that activated HIF signals (FG-4592, Selleck Chemicals, #S1007, 100 μM).

[4] = tested on: kidney organoid (Mini-kidney); test: Renal stromal cell marker mRNA expression in Mini-kidney under hypoxic stimulation; conditions: Mini-kidney IM+RSP (D25), 100 μM
From the text: The mRNA expression levels of renal stromal cell markers (desmin, vimentin, PDGFRβ and CD73) were quantified by the sequencing analysis of the libraries for transcriptomes prepared in Example 4-4. The expression of all the renal stromal cell markers was confirmed in the Mini-kidney (IM+RSP (D25)). As a result of confirming the hypoxic response of the Mini-kidney (IM+RSP (D25)) in the same manner as in Example 1-4, the expression levels of desmin and CD73 were decreased by hypoxic stimulation (100 μM FG-4592) (IM+RSP (D25)+FG4592).

[5] = tested on: kidney organoid (Mini-kidney); test: EPO mRNA expression in kidney organoid (Mini-kidney) under hypoxic stimulation; conditions: Mini-kidney IM+RSP (D25), 100 μM
Procedure: RNA was extracted from the kidney organoid on Day 25 from the start of coculture (Mini-kidney, IM+RSP (D25)) obtained in Example 4-3 and a kidney organoid containing no RSP (KiO (D25)), and libraries for transcriptome analysis were prepared using Ion AmpliSeq™ Transcriptome Human Gene Expression Kit (Thermo Fisher Scientific, Inc.: #A26326). The prepared libraries were subjected to sequencing analysis (Ion S5 XL sequencer, Thermo Fisher Scientific, Inc.) using Ion 54™ Chip Kit (Thermo Fisher Scientific, Inc., #A27765) to quantify the expression level of EPO mRNA. The significant expression of EPO mRNA was not seen in any of an iPS cell line, IM, and the kidney organoid containing no RSP (KiO (D25)). By contrast, the significant expression of EPO mRNA was confirmed in the Mini-kidney (IM+RSP (D25)). As a result of confirming the hypoxic response of the Mini-kidney in the same manner as in Example 1-4, the EPO expression level was increased by hypoxic stimulation (100 μM FG-4592) (IM+RSP (D25) +FG4592).

fibronectin (FN1) = test: Biomarker search: LC/MS analysis of culture supernatant of RSCs with induced fibrosis; conditions: 10 ng/ml TGFβ1 for 9 days
Procedure: RSPs were inoculated at 2×10^6 cells/dish to a 10 cm dish, and the induction of RSCs was started in STEMdiff APEL2 medium (STEMCELL Technologies Inc., ST-05275). On day 7 of culture (D7), 10 ng/ml TGFβ1 was added thereto, and the cells were further cultured for 9 days to induce fibrosis.
The culture supernatant was recovered. After removal of albumin, IgG and IgA, a peptide fragment was obtained by acetone precipitation and trypsin digestion. The amino acid sequence of the peptide fragment was determined by LC/MS analysis.

RSCs [6] = test: Fibrotic state of RSCs after removal of TGFβ1 from the medium
Procedure: In FIG. 13, RSCs on day 4 of culture (D4) were treated with TGFβ1 (1 ng/ml) for 9 days (D13 TGF) and then further cultured in a TGFβ1-containing medium (D25 TGF+) or a TGFβ1-free medium (D25 TGF−) for 12 days. […] “D25 Cont” depicts a negative control (without TGFβ1 treatment).
In FIG. 14, RSCs on day 4 of culture (D4) were treated with TGFβ1 (10 ng/ml) for 9 days (D13 TGF) and then further cultured in a TGFβ1-containing medium (D25 TGF+) or a TGFβ1-free medium (D25 TGF−) for 12 days. […] “D25 Cont” depicts a negative control (without TGFβ1 treatment).
By exploiting this property of fibrosis of RSCs, a screening system for a compound that improved a sustained fibrotic state was constructed.

For O=C(O)CNC(=O)c1nc(Cl)c2ccccc2c1O [FG-2216], the “secretion of EPO into the medium” value (hNCCs) was “increased”.

With NC(=O)c1ccc(-c2nc(-c3ccc4c(c3)OCO4)c(-c3ccccn3)[nH]2)cc1 [SB431542, 4-[4-(1,3-benzodioxol-5-yl)-5-(2-pyridinyl)-1H-imidazol-2-yl]-benzamide] the “fibrosis (area of tdTomato-positive cells)” value (RSCs [1]) was “marked suppression of fibrosis” and the “cellular hypertrophy caused by TGFβ1” value (RSCs [2]; cotreatment with TGF receptor inhibitor) was “suppressed”.

With “bFGF: basic fibroblast growth factor (FUJIFILM Wako Pure Chemical Corp.)” the “proliferation of the cells” value (RSPs; 40 ng/ml bFGF added to STEMdiff APEL2 medium) was “promoted”.

In the case of Cc1nc(C(=O)NCC(=O)O)c(O)c2ccc(Oc3ccccc3)cc12 [FG-4592], the “expression of EPO in response to hypoxic stimulation” value (RSCs [3]) is reported as “found at the mRNA level and the protein level”, the “expression level of CD73” value [4] is reported as “decreased” and the “expression level of desmin” value [4] is reported as “decreased”. For the same molecule, the “secretion of EPO into the medium” value (hNCCs) was “increased” and the EPO expression level [5] was “increased”.

In the case of “TGFβ1: isoform of transforming growth factor β, fibrosis-inducing substance”, the “cellular hypertrophy, concentration dependence” value (RSCs [2]; TGFβ1 0.01 to 10 ng/ml for 9 days) is reported as “caused in a TGFβ1 concentration-dependent manner”, the “differentiation into αSMA-positive myofibroblasts and cellular hypertrophy” value (RSCs [2]; TGFβ1 0.01 to 10 ng/ml for 9 days (D4 to D13)) is reported as “found” and the “FN1 detected in culture supernatant of treated cells as compared with untreated cells” value (fibronectin (FN1)) is reported as “about 10 times”. The “fibrotic state after removing TGFβ1 from the medium” value (RSCs [6]; fibrosis induced by 1 ng/ml TGFβ1) was “restored to non-fibrotic RSCs” and the “fibrotic state after removal of TGFβ1 from the medium” value (RSCs [6]; fibrosis induced by 10 ng/ml TGFβ1) was “maintained the fibrotic state”.

B1: PDGF-BB: platelet derived growth factor B chain homodimer (PeproTech, Inc., #100-14B) (protein, UniProt P01127 82-190, looked up)
Platelet-derived growth …: SLGSLTIAEPAMIAECKTRTEVFEISRRLIDRTNANFLVWPPCVEVQRCSGCCNNRNVQCRPTQVQLRPVQVRKIEIVRKKPIFKKATVTLEDHLACKCETVAAARPVT
In the case of B1, the “amount of EPO secreted” value (RSPs; 10 ng/ml PDGF-BB added to STEMdiff APEL2 medium) is reported as “increased”.
